Reference: patent US11110084B2, “Opioid formulations” (Camurus AB, priority 2012, dated 2021)

Conditions: disodium fluorescein 5 mg/g, 0.1 g in 2 ml PBS

O=C([O-])c1ccccc1-c1c2ccc(=O)cc-2oc2cc([O-])ccc12.[Na+].[Na+] [Fluo, disodium fluorescein]
% release (37° C.) 72 h: about 0.4%
